In PMC6727188, “Image-Based Investigation: Biorelevant Solubility of α and γ Indomethacin” (Analytical Chemistry, 2019):
In brackets after ≈: the same amount, converted by molar mass.

Assays:
[1] = Image-based single-particle-analysis (SPA) solubility measurement in a flow-through setup; format: physicochemical; conditions: for solubility ratio (RS) FaSSGF/FaSSGFblk / solubility ratio (RS) FaSSGF/HCl / solubility ratio (RS) FaSSGFblk/HCl / solubility ratio (RS) FeSSIF/FeSSIFblk: same solid-state form in different media
Description: Dissolution experiments utilizing the SPA method were performed using a custom-made flow-through setup (Figure 1). The experiments were conducted at room temperature (22 °C) rather than at 37 °C in order to ensure controlled experimental conditions. The setup enables the trapping of particles under constant-flow conditions. In this way, dissolved molecules are continuously extracted from the chamber, and sink conditions are maintained. As the measurement can be started as soon as the solvent comes in contact with the entrapped particles, the actual solubility of a metastable form can be measured before any possible solid-state transformation occurs that could affect the solubility. In eq 1, at sink conditions, bulk concentration (Cb) can be disregarded because it is practically zero. This means the dissolution rate (dm/dt) is dependent only on the equilibrium solubility at the interface (CS); k is the setup-dependent transport-rate constant determined as described by Svanbäck.[20] [drawing 1] 1 For a single measurement, approximately 10 mL of dissolution medium and less than 0.1 mg of sample were used. Online images were acquired over 15 min through the transparent part of the flow-through chamber using a USB microscope (Gigastone S1-100, Irvine, CA). At least five particles per solid-state form per medium were measured. For the analysis of the image data, a MatLab script was previously developed by Svanbäck and co-workers.[20],[22] The script enables quantification of the particle’s morphology change (i.e., dissolution rate) and, consequently, calculation of the solubility according to eq 1.

physchem = format: physicochemical; conditions: for solubility: thermodynamic from solid, Shake-flask solubility
Description: The solubilities of α and γ indomethacin were measured by the conventional shake-flask method in HCl (pH 1.6), FaSSGFblk, and FeSSIFblk. A detailed description of the methodology can be found in the Supporting Information on page S-2.
Effect of particle morphology on the solubility values measured by the SPA method was assessed by the
MatLab® regionprops toolbox. Three morphology-describing parameters were extracted; namely:
eccentricity, major axis length and minor axis length. The morphology parameters were then plotted against
solubility values of individual particles (Figure S1 and Figure S2). No specific effect of particle morphology
on solubility, in the size range studied (5-25 µm), was found.
Shake-flask solubility measurements
Indomethacin α and γ samples were placed in excess amount into vials. The vials were filled with HCl,
FaSSGFblk and FeSSIFblk media and left to stir on a rotating machine. This procedure was repeated in
triplicate for both solid-state forms and the three media. After 24h, 48h and 72h samples of 2 mL were
extracted and filtered (Whatman™ PVDF 13 mm with 0.45 µm pore size). After filtration, the samples of α
indomethacin were diluted four times with the corresponding medium […]
The drug concentration in the samples was determined using an Agilent High Performance Liquid
Chromatography (HPLC) 1260 system (Agilent Technologies, Germany). The Phenomenex Gemini NX-
C18, 3 µm, 100 x 4.6 mm column (Phenomenex, Torrance, CA) was used in the assays. The temperature of
the column was set to 30°C. Mobile phase used was 0.2% H3PO4:Acetonitrile (40:60, v:v) with flow rate of
1.5 mL/min. Injection volume was 20 µL and total run time 5 min. Detection was preformed at 270 nm.
Standard solutions of indomethacin in MilliQ:Ethanol (50:50, v:v) were prepared and analyzed with HPLC
to construct the calibration curve. All samples were analyzed in triplicate: 0.1, 0.5, 1, 10, 50 and 100 µg/mL
After 72h, the remaining excess solids, from vials were initially α form of indomethacin was placed, were
filtered and dried overnight in a vacuum oven. The next day, the excess solids were analyzed by XRPD and
XRPD diffractograms of the
remaining solids are presented in the Figure S3 and DSC thermograms in the Figure S4.
When comparing the shake-flask solubility values to the SPA solubility values, they are in the same rank
order and within the generally accepted interlaboratory variance, 0.6 log units.32 Moreover, a slight shift of
XRPD peaks to the left and appearance of a small melting peak at 159.3°C ± 0.1°C in the DSC thermograms
of the remaining excess solid samples indicate a presence of γ form (Figure S3 and S4). The presence of γ
form, in vials were initially pure α form was placed, would result in lower solubility ratio of α to γ solubility
measured by shake-flask method (1.7 ± 0.4) when compared to the ratio obtained by the SPA method (3.3 ±
0.5). With the SPA method, the actual solubility of the metastable α form was measured before any possible
solid-state transformation occurred that could affect the measurement. This was achieved by starting the
measurement as soon as the solvent came in contact with the sample and also by maintaining the sink
conditions in the flow-through cell.

[2] = set-up: method as in ref 9 (Hancock et al.); conditions: 200 mL deionized water, 45 °C; ref 9 (Hancock et al.); cited from earlier work
[3] = Estimation of the free-energy difference between polymorphs from DSC melting data; format: physicochemical; conditions: estimated from DSC melting data, extrapolated to room temperature
Description: DSC experiments were performed using a DSC823e (Mettler-Toledo, Greifensee, Switzerland) equipped with a refrigerated cooling system (Julabo FT 900, Seelbach, Germany). Nitrogen was used as a purge gas (50 mL/min).
Samples (2–5 mg) were tightly packed into standard aluminum crucibles (40 μL) with pierced lids. Two different procedures were used in these measurements. For determination of melting temperature and enthalpy, the samples were equilibrated at 25 °C for 3 min and then linearly heated with a heating rate of 10 °C/min to 180 °C. For determination of heat capacities, the samples were equilibrated at 140 °C and then heated up to 180 °C using a TOPEM-modulated heating program with a heating rate of 1 °C/min and a pulse height of 1 °C. Samples were measured in triplicate, and thermal events were analyzed using STARe software (Mettler-Toledo, Greifensee, Switzerland). Temperatures of melting, enthalpies of melting, and heat capacities were used to estimate the free-energy difference between the α and γ polymorphs.
The free-energy difference between two polymorphs can be estimated from their melting data or their respective solubility values. […]

[4] = set-up: method as in ref 15 (Fagerberg and co-workers); conditions: 37 °C, μDISS profiler; ref 15 (Fagerberg and co-workers); cited from earlier work
[5] = SPA method, FaSSGF pH 1.6, 22 °C
[6] = SPA method, FaSSGFblk (blank FaSSGF) pH 1.6, 22 °C
[7] = SPA method, FeSSIF pH 5.0, 22 °C
[8] = SPA method, FeSSIFblk (blank FeSSIF) pH 5.0, 22 °C

Structure (SMILES) | solubility [1, 5] [µg/mL] | solubility [1, 6] [µg/mL] | solubility [1, 7] [µg/mL] | solubility [1, 8] [µg/mL] | solubility ratio (RS) FaSSGF/FaSSGFblk ([1]; SPA method) | solubility ratio (RS) FaSSGF/HCl ([1]; SPA method) | solubility ratio (RS) FaSSGFblk/HCl ([1]; SPA method) | solubility ratio (RS) FeSSIF/FeSSIFblk ([1]; SPA method) | further results
COc1ccc2c(c1)c(CC(=O)O)c(C)n2C(=O)c1ccc(Cl)cc1 [α form, indomethacin] | 0.29 ± 0.16 (≈ 0.811 µM) | 0.14 ± 0.09 (≈ 0.391 µM) | 15.7 ± 10.4 (≈ 43.9 µM) | 2.79 ± 1.67 (≈ 7.8 µM) | 2.1 | 0.9 | 0.4 | 5.6 | solubility ([1]; SPA method, HCl pH 1.6, 22 °C): 0.34 ± 0.20 µg/mL (≈ 0.95 µM); ratio of α- to γ-solid-state-form solubility ([1]; SPA method, constant in all studied media (HCl, FaSSGFblk, FaSSGF, FeSSIFblk, FeSSIF)): 3.3 ± 0.5; free-energy difference ΔG between the α and γ polymorphs ([1]; from the SPA solubility ratios, molar units): 0.693 kcal/mol; free-energy difference ΔG between the α and γ polymorphs ([1]; from the α- to γ-solubility ratio obtained with the SPA method (eq 7), ambient temperature): 8 ± 1 J/g; free-energy difference ΔG between the α and γ polymorphs (physchem): 0.311 kcal/mol; ratio of α- to γ-solid-state-form solubility (physchem): 1.7 ± 0.4; solubility (physchem; pH 1.6, fassgf or other biorelevant): 0.5 ± 0.2 µg/mL (≈ 1.4 µM); solubility (physchem; pH 1.6, simulated gastric fluid): 0.6 ± 0.1 µg/mL (≈ 1.68 µM); solubility (physchem; pH 5, fassgf or other biorelevant): 9 ± 0.2 µg/mL (≈ 25.2 µM); α- to γ-solubility ratio [2]: 1.1; free-energy difference ΔG between the α and γ polymorphs [3]: 12 ± 7 J/g
COc1ccc2c(c1)c(CC(=O)O)c(C)n2C(=O)c1ccc(Cl)cc1 [γ form, indomethacin] | 0.10 ± 0.02 (≈ 0.279 µM) | 0.04 ± 0.03 (≈ 0.112 µM) | 3.80 ± 1.74 (≈ 10.6 µM) | 0.94 ± 0.58 (≈ 2.63 µM) | 2.5 | 1.0 | 0.4 | 4.0 | solubility ([1]; SPA method, HCl pH 1.6, 22 °C, listed as Indomethacin γ): 0.10 ± 0.05 µg/mL (≈ 0.279 µM); fold increase in solubility from FeSSIFblk to FeSSIF [4]: 7.3 fold; Shake-flask solubility (physchem; pH 1.6): 0.3 ± 0.1 µg/mL; Shake-flask solubility (physchem; pH 5): 6.4 ± 0.1 µg/mL
